# Source: article PMC2573961 (PLoS ONE, 2008)
# No end group written: not given here.
# Assays:
# [1] = system: ERAP1; test: 40 ng of ERAP1 in 20 mM Tris pH 8 buffer containing 100 mM NaCl; details: human, 37°C, up to 1 hr
# [2] = system: ERAP1 (recombinant, Hi5 insect cells); test: purified recombinant ERAP1 in 20 mM Tris pH 8, 100 mM NaCl; details: human, 37°C, up to 1 hr
# [3] = system: ERAP1; test: purified recombinant ERAP1 (alanine scan); details: human
# [4] = system: ERAP1; test: ERAP1, trimming rate measurements (pmol/µg ERAP1×sec); details: human
# [5] = system: ERAP1; test: 800 nM ERAP1; details: human, 37°C, up to 1 hr
# [6] = target: T1, human recombinant ERAP1 (Homo sapiens, UniProt Q9NZ08); test: N-terminus trimming of model peptides by ERAP1, products analysed by reverse-phase HPLC; assay type: biochemical; details: alanine scan, 40 ng of ERAP1, three separate experiments in parallel; RP-HPLC; Figure 3A
# T1 construct: we over-expressed human recombinant full-length ERAP1 in insect cell suspension culture; hexa-His (C); myc; made in house; host or cells: Hi5 insect cells (baculovirus; virus made in SF9 cells)
# Protocol: Human recombinant ERAP1 was produced in Hi5 insect cells grown in Excel405™ serum free medium, after infection by baculovirus carrying the ERAP1 gene with a C-terminal hexa-His tag. The enzyme was secreted into the cell medium, which was harvested by centrifugation (3000 rpm, 30 min, 4°C, GSA rotor) in a Sorvall centrifuge. The cell supernatant was subjected to 3 rounds of buffer exchange (10 fold dilution each time) using a large scale diafiltration apparatus versus 5 mM phosphate buffer at pH 7 containing 100 mM NaCl. The supernatant was then concentrated and its composition adjusted to 50 mM phosphate (pH 8), 300 mM NaCl, 10 mM imidazole and immediately loaded onto a HiTrap™ chelating column (Qiagen) that was pre-loaded with Ni(II)SO4. The column was washed with the same buffer containing 20 mM imidazole and the protein was eluted using a 20 mM to 150 mM imidazole gradient. […]
# The digestion of model peptides by ERAP1 was followed by analysis of peptide products of the digestion on a reverse phase C18 column (Higgins Analytical 0546-C183). […] The elution was done with a 5% to 40% acetonitrile gradient at 1 ml/min, while following the absorbance at 214 nm or 280 nm. […]
# Figure 1 Typical chromatogram of peptide product analysis after ERAP1 digestion. Samples were analyzed by HPLC reverse phase chromatography. […]
# [7] = system: ERAP1; test: 15.6 nM of ERAP1; details: human, 37°C, up to 1 hr
# [8] = system: ERAP1; test: 40 ng ERAP1; details: human, 37°C, up to 1 hr
# [9] = system: ERAP1; test: 7.8 nM of ERAP1; details: human, 37°C, up to 1 hr
# [10] = system: ERAP1; test: 1 nM ERAP1; details: human, 37°C, up to 1 hr
# T1 sequence (Q9NZ08 1-948 isoform Q9NZ08-2): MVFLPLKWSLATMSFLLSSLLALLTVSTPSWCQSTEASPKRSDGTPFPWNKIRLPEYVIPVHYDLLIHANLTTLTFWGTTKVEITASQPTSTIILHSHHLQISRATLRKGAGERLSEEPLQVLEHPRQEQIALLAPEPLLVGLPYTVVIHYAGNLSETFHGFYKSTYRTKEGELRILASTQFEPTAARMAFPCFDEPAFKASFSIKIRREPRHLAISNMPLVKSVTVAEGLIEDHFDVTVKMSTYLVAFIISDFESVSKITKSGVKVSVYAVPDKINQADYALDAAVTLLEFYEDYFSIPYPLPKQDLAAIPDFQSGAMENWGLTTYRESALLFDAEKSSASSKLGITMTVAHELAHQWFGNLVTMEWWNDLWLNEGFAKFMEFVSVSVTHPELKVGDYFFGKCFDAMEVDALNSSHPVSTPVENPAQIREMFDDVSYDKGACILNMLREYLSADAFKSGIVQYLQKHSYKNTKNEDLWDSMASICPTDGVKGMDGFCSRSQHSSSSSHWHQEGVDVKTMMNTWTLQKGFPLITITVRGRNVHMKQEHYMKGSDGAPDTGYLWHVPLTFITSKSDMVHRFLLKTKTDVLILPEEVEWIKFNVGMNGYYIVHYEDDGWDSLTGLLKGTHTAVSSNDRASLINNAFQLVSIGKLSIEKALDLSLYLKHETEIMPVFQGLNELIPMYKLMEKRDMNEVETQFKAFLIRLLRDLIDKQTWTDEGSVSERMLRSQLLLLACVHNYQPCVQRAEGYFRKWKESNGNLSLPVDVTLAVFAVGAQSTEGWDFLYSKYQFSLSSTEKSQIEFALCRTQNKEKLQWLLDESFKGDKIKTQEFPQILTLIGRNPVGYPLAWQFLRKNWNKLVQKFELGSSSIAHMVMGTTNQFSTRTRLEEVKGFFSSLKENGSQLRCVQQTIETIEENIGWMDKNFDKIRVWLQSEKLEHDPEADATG
sequence,measurement,setting,value
AYWANATRSG,cleaved bond,[1],A-Y
FYWANATRSG,cleaved bond,[1],"F-Y, 1 hr"
same,cleaved bond,[2],"F-Y, 1 hr"
LYWANATRSG,cleaved bond,[1],L-Y
same,cleaved bond,[3],L-Y
LAWANATRSG,cleaved bond,[1],L-A
LTAEEAVET,cleaved bond,[4],L-T
same,not cleaved,[5],completely resistant to trimming after 1 hr with 800 nM ERAP1
LYWANATASG [LYWANATASG],percent N-terminus trimming detected,[6],Less than 1%
LYAANATRSG,cleaved bond,[1],L-Y
LVNVDYSAL,cleaved bond,[7],"L-V, 1 hr"
LAAALSIINFEKL,not cleaved,[1],resistant to any trimming after 1 hr
same,not cleaved,[8],resistant to any trimming after 1 hr
LVNVDYSKL,cleaved bond,[7],"L-V, 1 hr"
LSIINFEAL,cleaved bond,[9],"L-S, 1 hr"
LYWANATRSA,cleaved bond,[1],L-Y
LVAFKARKF,cleaved bond,[10],"L-V, 1 hr"
LYWANAARSG,cleaved bond,[1],L-Y
MYWANATRSG,cleaved bond,[1],M-Y
LSIINFEKL,cleaved bond,[1],"L-S, 1 hr"
same,cleaved bond,[9],L-S
LSIINFEKLAAAL,cleaved bond,[1],"L-S, 1 hr"
LYWANATRAG,cleaved bond,[1],L-Y
LYWANATASG,cleaved bond,[4],L-Y
same,not cleaved,[3],Less than 1% trimming
LYWAAATRSG,cleaved bond,[1],L-Y
